Common to all, as to format: in vivo
The test system of data set [1] is Tobacco cutworm (Spodoptera litura) larvae. Put plainly: Test against tobacco cutworm (Spodoptera litura) larvae, leaf dip. The note with it: active compound concentration 100 ppm; third instar larvae on dipped sweet potato leaves; after 7 days. Here is the method: (§1) Unless described otherwise, the test solutions were prepared as follows:
(§2) The active compound, 1 part by weight of the active compound was admixed with the solvent in the above described amount which contains the emulsifying agent in the above described amount. The mixture was then diluted with water to specific concentration.
(§3) In order to prepare the test solution containing the active compound, 1 part by weight of the active compound was admixed with 3 parts by weight of the solvent dimethyl formamide which contains 1 part by weight of the emulsifying agent polyoxyethylene alkylphenyl ether. This mixture is then diluted with water to the specific concentration.
(§4) Solvent: dimethyl formamide, 3 parts by weight; emulsifying agent: polyoxyethylene alkylphenyl ether, 1 part by weight
Leaves of sweet potato were immersed in the test solution at the appropriate concentration, and the leaves were dried in air. The leaves were then placed in a petri dish having a diameter of 9 cm, and ten Spodoptera litura at third instar larvae were released therein. The petri dishes were placed in a temperature-controlled chamber at 25° C. After 2 days and 4 days more sweet potato leaves were added. After 7 days, the number of dead larvae was counted to calculate the insecticidal activity. An insecticidal activity of 100% means that all larvae were killed, whereas an insecticidal activity of 0% means that no larva was killed. In the current test, the results of two petri dishes for each treatment were averaged.

Data set [2] concerns Two-spotted spider mite (Tetranychus urticae). Put plainly: Test against two-spotted spider mite (Tetranychus urticae), spray. The conditions noted are these: active compound concentration 100 ppm; adult mites on kidney bean, sprayed; after 7 days. Here is the method: as §1, §2, §3, §4
50 to 100 adult mites of Tetranychus urticae were inoculated to leaves of kidney bean at two-leaf stage planted in a pot of 6 cm in diameter. After one day, test solution at the appropriate concentration was sprayed thereon in a sufficient amount using a spray gun. After the spraying, the plant pot was placed inside a greenhouse, and after 7 days, the acaricidal activity was calculated. An acaricidal activity of 100% means that all mites were killed, whereas an acaricidal activity of 0% means that no mite was killed.

The subject of data set [3] is Cucurbit leaf beetle (Aulacophora femoralis). Description: Test against cucurbit leaf beetle (Aulacophora femoralis), leaf dip. The note with it: active compound concentration 100 ppm; second instar larvae on dipped cucumber leaves; after 7 days. Here is the method: as §1, §2, §3, §4
Leaves of cucumber were immersed in the test solution at the appropriate concentration, and the leaves were dried in air. The leaves were then put in a plastic cup containing sterilized black soil and five Aulacophora femoralis at second instar larvae were released in the cup. The cups were placed in a temperature-controlled chamber at 25° C. After 7 days, the number of dead larvae was counted, and thus the insecticidal activity was calculated. An insecticidal activity of 100% means that all larvae were killed, whereas an insecticidal activity of 0% means that no larva was killed.

For a further data set, the system named is Ctenocephalides felis. Description: Ctenocephalides felis-test (CTECFE). The note with it: application rate 100 ppm in cattle blood; adult unfed fleas; after 2 days. Here is the method:
Solvent: dimethyl sulfoxide
To produce a suitable preparation of active compound, 10 mg of active compound are dissolved in 0.5 ml solvent, and the concentrate is diluted with cattle blood to the desired concentration. Approximately 20 adult unfed (Ctenocephalides felis) are placed in flea chambers. The blood chamber, sealed with parafilm on the bottom, are filled with cattle blood supplied with compound solution and placed on top of the flea chamber, so that the fleas are able to suck the blood. The blood chamber is heated to 37° C. whereas the flea chamber is kept at room temperature. After 2 days mortality in % is determined. 100% means that all the fleas have been killed; 0% means that none of the fleas have been killed.

Take `CCC(=O)NC(C)c1ccc(N2CC(c3cc(Cl)c(Cl)c(Cl)c3)(C(F)(F)F)OC2=O)cc1` (racemic) [Compound 1-371, N-(1-{4-[2-oxo-5-(3,4,5-trichlorophenyl)-5-(trifluoromethyl)-1,3-oxazolidin-3-yl]phenyl}ethyl)propanamide]: the insecticidal activity in data set [1] was determined as 100%. For the same molecule, in data set [2], the acaricidal activity is recorded as 100%.
Regarding `O=C(CC(F)(F)F)NCc1ccc(N2CC(c3cc(Cl)cc(Cl)c3)(C(F)(F)F)OC2=O)cc1C(F)(F)F` (centres unmarked) [Compound 1-7], the insecticidal activity in data set [1] and in data set [3] was 100% in each case. The molecule further gave an acaricidal activity in data set [2] of 100%. Also, in the data set on Ctenocephalides felis, the “activity (mortality in %)” value turned out to be 95%.
Turning to `O=C(CC(F)(F)F)NCc1ccc(N2CC(c3cc(Cl)c(Cl)c(Cl)c3)(C(F)(F)F)OC2=O)cc1C(F)(F)F` (centres unmarked) [Compound 1-21], the insecticidal activity in data set [1] and in data set [3] was 100% in each case. For the same molecule, the acaricidal activity in data set [2] came out at 100%.
The molecule `COCCC(=O)NCc1ccc(N2CC(c3cc(Cl)c(Cl)c(Cl)c3)(C(F)(F)F)OC2=O)cc1C(F)(F)F` (centres unmarked) [Compound 1-25] showed an insecticidal activity in data set [1] of 100%. For the same molecule, the acaricidal activity in data set [2] is given as 100%.
On to `CCC(=O)NCc1ccc(N2CC(c3cc(Cl)c(Cl)c(Cl)c3)(C(F)(F)F)OC2=O)cc1Cl` (centres unmarked) [Compound 1-31], for which the insecticidal activity in data set [1] and in data set [3] was 100% each time. The molecule further yielded an acaricidal activity in data set [2] of 100%.
`CCC(=O)NCc1ccc(N2CC(c3cc(Cl)c(Cl)c(Cl)c3)(C(F)(F)F)OC2=O)cc1` (centres unmarked) [Compound 1-59]: the insecticidal activity in data set [1] and in data set [3] was 100% throughout. Besides, the “activity (mortality in %)” value with Ctenocephalides felis came to 95%.
For the molecule `O=C(NCc1ccc(N2CC(c3cccc(C(F)(F)F)c3)(C(F)(F)F)OC2=O)cc1C(F)(F)F)C1CC1` (centres unmarked) [Compound 1-75], the insecticidal activity in data set [1] and in data set [3] was 100% throughout. The same molecule registered an acaricidal activity in data set [2] of 100%.
For the molecule `O=C(CC1CC1)NCc1ccc(N2CC(c3cccc(C(F)(F)F)c3)(C(F)(F)F)OC2=O)cc1C(F)(F)F` (centres unmarked) [Compound 1-76], the insecticidal activity in data set [1] and in data set [3] was 100% throughout. This molecule had an acaricidal activity in data set [2] of 100%.
Regarding `CCC(=O)NCc1ccc(N2CC(c3cc(C(F)(F)F)cc(C(F)(F)F)c3)(C(F)(F)F)OC2=O)cc1C(F)(F)F` (centres unmarked) [Compound 1-129], the insecticidal activity in data set [1] and in data set [3] was 100% throughout. In data set [2], this molecule displayed an acaricidal activity of 100%.
Regarding `O=C(CC(F)(F)F)NCc1ccc(N2CC(c3cc(C(F)(F)F)cc(C(F)(F)F)c3)(C(F)(F)F)OC2=O)cc1C(F)(F)F` (centres unmarked) [Compound 1-133], the insecticidal activity in data set [1] and in data set [3] was 100% in each case. The acaricidal activity in data set [2] was 100%.
Turning to `CSCC(=O)NCc1ccc(N2CC(c3cc(C(F)(F)F)cc(C(F)(F)F)c3)(C(F)(F)F)OC2=O)cc1C(F)(F)F` (centres unmarked) [Compound 1-134], the insecticidal activity in data set [1] and in data set [3] was 100% in each case. Moreover, the acaricidal activity in data set [2] is given as 100%.
Take `CS(=O)(=O)CC(=O)NCc1ccc(N2CC(c3cc(C(F)(F)F)cc(C(F)(F)F)c3)(C(F)(F)F)OC2=O)cc1C(F)(F)F` (centres unmarked) [Compound 1-136]: the insecticidal activity in data set [1] and in data set [3] was 100% throughout. Also, the acaricidal activity in data set [2] was determined as 100%.
As for `COCCC(=O)NCc1ccc(N2CC(c3cc(C(F)(F)F)cc(C(F)(F)F)c3)(C(F)(F)F)OC2=O)cc1C(F)(F)F` (centres unmarked) [Compound 1-137], the insecticidal activity in data set [3] is listed as 100%. For the same molecule, the acaricidal activity in data set [2] was 100%.
With `CCC(=O)NCc1ccc(N2CC(c3cc(C(F)(F)F)cc(C(F)(F)F)c3)(C(F)(F)F)OC2=O)cc1Cl` (centres unmarked) [Compound 1-143], the insecticidal activity in data set [1] and in data set [3] was 100% in each case.
As for `O=C(CC(F)(F)F)NCc1ccc(N2CC(c3cc(C(F)(F)F)cc(C(F)(F)F)c3)(C(F)(F)F)OC2=O)cc1Cl` (centres unmarked) [Compound 1-147], the insecticidal activity in data set [1] and in data set [3] was 100% each time. The molecule further registered an acaricidal activity in data set [2] of 100%. The “activity (mortality in %)” value in the data set on Ctenocephalides felis is recorded as 95%.
For the molecule `C[S+]([O-])CC(=O)NCc1ccc(N2CC(c3cc(C(F)(F)F)cc(C(F)(F)F)c3)(C(F)(F)F)OC2=O)cc1Cl` (centres unmarked) [Compound 1-149], the insecticidal activity in data set [1] and in data set [3] was 100% throughout.
As for `CCC(=O)NCc1ccc(N2CC(c3cc(C(F)(F)F)cc(C(F)(F)F)c3)(C(F)(F)F)OC2=O)cc1C` (centres unmarked) [Compound 1-157], the insecticidal activity in data set [1] and in data set [3] was 100% in each case.
On to `Cc1cc(N2CC(c3cc(C(F)(F)F)cc(C(F)(F)F)c3)(C(F)(F)F)OC2=O)ccc1CNC(=O)CC(F)(F)F` (centres unmarked) [Compound 1-161], for which the insecticidal activity in data set [1] and in data set [3] was 100% in each case. Moreover, in the data set with Ctenocephalides felis, the “activity (mortality in %)” value is reported as 80%.
Take `Cc1cc(N2CC(c3cc(C(F)(F)F)cc(C(F)(F)F)c3)(C(F)(F)F)OC2=O)ccc1CNC(=O)C[S+](C)[O-]` (centres unmarked) [Compound 1-163]: the “activity (mortality in %)” value with Ctenocephalides felis was determined as 80%.
As to `COCCC(=O)NCc1ccc(N2CC(c3cc(C(F)(F)F)cc(C(F)(F)F)c3)(C(F)(F)F)OC2=O)cc1C` (centres unmarked) [Compound 1-165], the insecticidal activity in data set [1] and in data set [3] was 100% in each case.
Consider `C[C@H](NC(=O)C1CC1)c1ccc(N2CC(c3cc(Cl)cc(Cl)c3)(C(F)(F)F)OC2=O)cc1` (some centres unmarked) [Compound 1-345-a], for which the insecticidal activity in data set [1] was found to be 100%. In data set [2], this molecule came in with an acaricidal activity of 100%.
For `CC(=O)NC(C)c1ccc(N2CC(c3cc(Cl)c(Cl)c(Cl)c3)(C(F)(F)F)OC2=O)cc1` (centres unmarked) [Compound 1-370], the insecticidal activity in data set [1] and in data set [3] was 100% in each case.
For `C[C@H](NC(=O)C1CC1)c1ccc(N2CC(c3cc(Cl)c(Cl)c(Cl)c3)(C(F)(F)F)OC2=O)cc1` (some centres unmarked) [Compound 1-373-a], the insecticidal activity in data set [1] and in data set [3] was 100% throughout. This molecule also returned an acaricidal activity in data set [2] of 100%.
In data set [1], `CC(NC(=O)C1CC1)c1ccc(N2CC(c3cc(Cl)c(Cl)c(Cl)c3)(C(F)(F)F)OC2=O)cc1` (centres unmarked) [Compound 1-373] yielded an insecticidal activity of 100%. Further, the acaricidal activity in data set [2] stood at 100%.
With `CCC(=O)NC1CCc2cc(N3CC(c4cc(Cl)c(Cl)c(Cl)c4)(C(F)(F)F)OC3=O)ccc21` (centres unmarked) [Compound 4-31], the insecticidal activity in data set [1] and in data set [3] was 100% each time. Besides, the acaricidal activity in data set [2] was determined as 100%.
In the case of `O=C(NC1CCc2cc(N3CC(c4cc(Cl)c(Cl)c(Cl)c4)(C(F)(F)F)OC3=O)ccc21)C1CC1` (centres unmarked) [Compound 4-33], the insecticidal activity in data set [1] and in data set [3] was 100% throughout. In data set [2], this molecule yielded an acaricidal activity of 100%.
For `O=C(CC1CC1)NC1CCc2cc(N3CC(c4cc(Cl)c(Cl)c(Cl)c4)(C(F)(F)F)OC3=O)ccc21` (centres unmarked) [Compound 4-34], the insecticidal activity in data set [1] and in data set [3] was 100% in each case. The same molecule had an acaricidal activity in data set [2] of 100%.
On to `O=C(CC(F)(F)F)NC1CCc2cc(N3CC(c4cc(Cl)c(Cl)c(Cl)c4)(C(F)(F)F)OC3=O)ccc21` (centres unmarked) [Compound 4-35], for which the insecticidal activity in data set [1] and in data set [3] was 100% in each case. This molecule also had an acaricidal activity in data set [2] of 100%.

For the origin of these results see patent US20110152332A1, “Pesticidal Heterocyclic Compounds” (Bayer CropScience AG, priority 2009, published 2011).
